Where two headings read alike, the source gives them in different places.
Columns and labels:
[1] = molecular target: T1, GABAA/α6 (α6β3γ2 GABAA receptors) (Homo sapiens, UniProt P18507+Q16445); assay: Competitive binding assay, [3H]flunitrazepam
T1 construct: expressed in transfected cells
Protocol: (§1) The GABAA subunit selectivity of several compounds prepared as described above were determined using competitive binding assays. […] Membranes were harvested with a Brandel cell harvester followed by three ice-cold washes onto polyethyleneimine-pretreated (0.3%) Whatman GF/C filters. Filters were dried overnight and then soaked in Ecoscint, a liquid scintillation cocktail (National Diagnostics; Atlanta, Ga.). Bound radioactivity was quantified by liquid scintillation counting. Membrane protein concentrations were determined using an assay kit from Bio-Rad (Hercules, Calif.) with bovine serum albumin as the standard.

[2] = molecular target: T2, GABAA/α4 (α4β3γ2 GABAA receptors) (Homo sapiens, UniProt P18507+P48169); assay: Competitive binding assay, [3H]flunitrazepam
T2 construct: expressed in transfected cells
Protocol: as §1

[3] = system: Metrazol-induced clonic seizures; assay: Subcutaneous Metrazol test (scMet), mice; assay type: in vivo; details: Mice IP
Protocol: (§2) The benzodiazepine derivative compounds selective for GABAa receptor subunits were tested for the ability to suppress seizures in several standard rat and mouse models of epilepsy. […] The standard models incorporated into anticonvulsant screening include the maximal electroshock test (MES), the subcutaneous Metrazol test (scMet), and evaluations of toxicity (TOX). The data for each condition is presented as a ratio of either the number of animals protected or toxic (loss of locomotor activity) over the number of animals tested at a given time point and dose.
(§3) Subcutaneous injection of the convulsant Metrazol produces clonic seizures in laboratory animals. […] Animals are pretreated with various doses of the test compound (in a similar manner to the MES test, although a dose of 50 mg/kg (po) is the standard for Test 2 scMet). At the previously determined TPE of the test compound, the dose of Metrazol which will induce convulsions in 97% of animals (CD97: 85 mg/kg mice) is injected into a loose fold of skin in the midline of the neck. […] An episode of clonic spasms, approximately 3-5 seconds, of the fore and/or hindlimbs, jaws, or vibrissae is taken as the endpoint.

MES-induced seizures = assay: Maximal electroshock test (MES), mice; assay type: in vivo; details: Mice IP
Protocol: as §2
The MES is a model for generalized tonic-clonic seizures and provides an indication of a compound's ability to prevent seizure spread when all neuronal circuits in the brain are maximally active. These seizures are highly reproducible and are electrophysiologically consistent with human seizures. For all tests based on MES convulsions, 60 Hz of alternating current (50 mA in mice, 150 in rats) is delivered for by corneal electrodes which have been primed with an electrolyte solution containing an anesthetic agent (0.5% tetracaine HCL). For Test 1, mice are tested at various intervals following doses of 30, 100 and 300 mg/kg of test compound given by ip injection of a volume of 0.01 mL/g. In Test 2, rats are tested after a dose of 30 mg/kg (po) in a volume of 0.04 mL/g. Test 8 uses varying doses administered via i.p. injection, again in a volume of 0.04 ml/g. […] In Antiepileptic Drugs, Levy, R. H. M., Meldrum, B. S., Eds.; Raven Press: New York, pp 99-110, 1995b.).

[4] = system: Metrazol-induced clonic seizures; assay: Subcutaneous Metrazol test (scMet), rats; assay type: in vivo; details: Rat PO, 50 mg/kg
Protocol: as §2, §3

[5] = system: minimal motor deficit (ataxia, abnormal gait); assay: Toxicity (TOX), minimal motor deficit, rats; assay type: in vivo; details: Rat PO, 50 mg/kg
Protocol: as §2
(§4) To assess a compound's undesirable side effects (toxicity), animals are monitored for overt signs of impaired neurological or muscular function. […] When a mouse is placed on a rod that rotates at a speed of 6 rpm, the animal can maintain its equilibrium for long periods of time. The animal is considered toxic if it falls off this rotating rod three times during a 1-min period. In rats, minimal motor deficit is indicated by ataxia, which is manifested by an abnormal, uncoordinated gait. Rats used for evaluating toxicity are examined before the test drug is administered, since individual animals may have peculiarities in gait, equilibrium, placing response, etc., which might be attributed erroneously to the test substance.

6 Hz psychomotor seizure = assay: Minimal clonic seizure (6 Hz) test; assay type: in vivo; details: Mice IP; for ED50: Mus musculus, ip, 1 h, 1 Hr, read-out: ED50 (6 Hz)
From the text: Like the maximal electroshock (MES) test, the minimal clonic seizure (6 Hz) test is used to assess a compound's efficacy against electrically-induced seizures but uses a lower frequency (6 Hz) and longer duration of stimulation (3 s). Test compounds are pre-administered to mice via ip injection. […] Untreated mice will display seizures characterized by a minimal clonic phase followed by stereotyped, automatistic behaviors described originally as being similar to the aura of human subjects with partial seizures. Animals not displaying this behavior are considered protected (Table 10).

[6] = system: minimal muscular or neurological impairment; assay: Toxicity (TOX), rotorod procedure, mice; assay type: in vivo; details: Mice IP
Protocol: as §2, §4

[7] = molecular target: T3, GABAA/α5 (α5β3γ2 GABAA receptors) (Homo sapiens, UniProt P18507+P31644); assay: Competitive binding assay, [3H]flunitrazepam
T3 construct: expressed in transfected cells
Protocol: as §1

[8] = molecular target: T4, GABAA/α1 (α1β3γ2 GABAA receptors) (Homo sapiens, UniProt P14867+P18507); assay: Competitive binding assay, [3H]flunitrazepam
T4 construct: expressed in transfected cells
Protocol: as §1

[9] = molecular target: T5, GABAA/α2 (α2β3γ2 GABAA receptors) (Homo sapiens, UniProt P18507+P47869); assay: Competitive binding assay, [3H]flunitrazepam
T5 construct: expressed in transfected cells
Protocol: as §1

[10] = molecular target: T6, GABAA/α3 (α3β3γ2 GABAA receptors) (Homo sapiens, UniProt P18507+P34903); assay: Competitive binding assay, [3H]flunitrazepam
T6 construct: expressed in transfected cells
Protocol: as §1

[11] = Binding Affinity at GABAA/α5, αxβ3γ2, [3H]flunitrazepam competition
[12] = Binding Affinity at GABAA/α1, αxβ3γ2, [3H]flunitrazepam competition
[13] = Binding Affinity at GABAA/α2, αxβ3γ2, [3H]flunitrazepam competition
[14] = Binding Affinity at GABAA/α3, αxβ3γ2, [3H]flunitrazepam competition

Structure (SMILES): C#Cc1ccc2c(c1)C(c1ccccc1F)=NC(C)c1c(C(=O)OCC)ncn1-2 (single isomer, unassigned) [SH-053-2′F-R-CH3, 8-Ethynyl-6-(2-fluorophenyl)-4-methyl-4H-2,5,10b-triaza-benzo[e]azulene-3-carboxylic acid ethyl ester]
- Ki [1]: > 5 µM
- Ki [2]: > 5 µM

Structure (SMILES): C#Cc1ccc2c(c1)C(c1ccccc1F)=NC(C)c1c(C(=O)OCC)ncn1-2 (single isomer, unassigned) [SH-053-2′F-S-CH3, 8-Ethynyl-6-(2-fluorophenyl)-4-methyl-4H-2,5,10b-triazabenzo[e]azulene-3-carboxylic acid ethyl ester]
- scMet, animals protected/tested ([3]; 30 mg/kg, 0.5 Hr): 0/1
- scMet, animals protected/tested ([3]; 30 mg/kg, 4.0 Hr): 0/1
- scMet, animals protected/tested ([3]; 100 mg/kg, 0.5 hr): 2/5
- scMet, animals protected/tested ([3]; 100 mg/kg, 4.0 hr): 0/1
- scMet, animals protected/tested ([3]; 300 mg/kg, 0.5 Hr): 1/1
- scMet, animals protected/tested ([3]; 300 mg/kg, 4.0 Hr): 0/1
- MES, animals protected/tested (MES-induced seizures; 30 mg/kg, 0.5 Hr): 0/1
- MES, animals protected/tested (MES-induced seizures; 30 mg/kg, 4.0 Hr): 0/1
- MES, animals protected/tested (MES-induced seizures; 100 mg/kg, 0.5 hr): 0/3
- MES, animals protected/tested (MES-induced seizures; 100 mg/kg, 4.0 hr): 0/3
- MES, animals protected/tested (MES-induced seizures; 300 mg/kg, 0.5 Hr): 0/1
- MES, animals protected/tested (MES-induced seizures; 300 mg/kg, 4.0 Hr): 0/1
- scMet, animals protected/tested ([4]; 0.5 h): 0/4
- scMet, animals protected/tested ([4]; 1.0 h): 0/4
- scMet, animals protected/tested ([4]; 2.0 h): 1/4
- scMet, animals protected/tested ([4]; 4.0 h): 0/4
- scMet, animals protected/tested ([4]; […]): 1/4
- Tox, animals toxic/tested ([5]; 0.5 h): 0/4
- Tox, animals toxic/tested ([5]; 1.0 h): 0/4
- Tox, animals toxic/tested ([5]; 2.0 h): 0/4
- Tox, animals toxic/tested ([5]; 4.0 h): 0/4
- Tox, animals toxic/tested ([5]; […]): 0/4
- 6 Hz Time to Peak Effect, protected/tested (6 Hz psychomotor seizure; 30 mg/kg, 22 mA, 1.0 Hr): 6/8
- 6 Hz Time to Peak Effect, protected/tested (6 Hz psychomotor seizure; 30 mg/kg, 22 mA, 2.0 Hr): 2/8
- 6 Hz Time to Peak Effect, protected/tested (6 Hz psychomotor seizure; 50 mg/kg, 22 mA, 0.5 Hr): 1/4
- 6 Hz Time to Peak Effect, protected/tested (6 Hz psychomotor seizure; 50 mg/kg, 22 mA, 1.0 Hr): 3/4
- 6 Hz Time to Peak Effect, protected/tested (6 Hz psychomotor seizure; 50 mg/kg, 22 mA, 2.0 Hr): 3/4
- 6 Hz Time to Peak Effect, protected/tested (6 Hz psychomotor seizure; 100 mg/kg, 22 mA, 0.25 Hr): 2/4
- 6 Hz Time to Peak Effect, protected/tested (6 Hz psychomotor seizure; 100 mg/kg, 22 mA, 0.5 Hr): 4/4
- 6 Hz Time to Peak Effect, protected/tested (6 Hz psychomotor seizure; 100 mg/kg, 22 mA, 1.0 Hr): 4/4
- 6 Hz Time to Peak Effect, protected/tested (6 Hz psychomotor seizure; 100 mg/kg, 22 mA, 2.0 Hr): 4/4
- 6 Hz Time to Peak Effect, protected/tested (6 Hz psychomotor seizure; 100 mg/kg, 22 mA, 4.0 Hr): 2/4
- 6 Hz Time to Peak Effect, protected/tested (6 Hz psychomotor seizure; 100 mg/kg, 32 mA, 0.25 Hr): 2/4
- 6 Hz Time to Peak Effect, protected/tested (6 Hz psychomotor seizure; 100 mg/kg, 32 mA, 0.5 Hr): 1/4
- 6 Hz Time to Peak Effect, protected/tested (6 Hz psychomotor seizure; 100 mg/kg, 32 mA, 1.0 Hr): 4/4
- 6 Hz Time to Peak Effect, protected/tested (6 Hz psychomotor seizure; 100 mg/kg, 32 mA, 2.0 Hr): 2/4
- 6 Hz Time to Peak Effect, protected/tested (6 Hz psychomotor seizure; 100 mg/kg, 32 mA, 4.0 Hr): 2/4
- ED50 (6 Hz psychomotor seizure; 22 mA): 14.2 mg/kg
- ED50 (6 Hz psychomotor seizure; 32 mA): 71.2 mg/kg
- Ki [1]: > 5 µM
- Ki [2]: > 5 µM
- TOX (Rotorod Test), animals toxic/tested ([6]; 30 mg/kg, 0.5 Hr): 0/4
- TOX (Rotorod Test), animals toxic/tested ([6]; 30 mg/kg, 4.0 Hr): 0/2
- TOX (Rotorod Test), animals toxic/tested ([6]; 100 mg/kg, 0.5 hr): 1/8
- TOX (Rotorod Test), animals toxic/tested ([6]; 100 mg/kg, 4.0 hr): 0/4
- TOX (Rotorod Test), animals toxic/tested ([6]; 300 mg/kg, 0.5 Hr): 2/4
- TOX (Rotorod Test), animals toxic/tested ([6]; 300 mg/kg, 4.0 Hr): 0/2

Structure (SMILES): C#Cc1ccc2c(c1)C(c1ccccc1)=NC(C)c1c(C(=O)OCC)ncn1-2 (single isomer, unassigned) [SH-053-R-CH3, 8-Ethynyl-4-methyl-6-phenyl-4H-2,5,10b-triaza-benzo[e]azulene-3-carboxylic acid ethyl ester]
- Ki [7, 11]: 949 nM
- Ki ([1]; read-out: Binding Affinity at GABAA/α6, αxβ3γ2, [3H]flunitrazepam competition): > 5 µM
- Ki [8, 12]: 2030 nM
- Ki [9, 13]: 2380 nM
- Ki [10, 14]: 1180 nM
- Ki ([2]; read-out: Binding Affinity at GABAA/α4, αxβ3γ2, [3H]flunitrazepam competition): > 5 µM

Structure (SMILES): C#Cc1ccc2c(c1)C(c1ccccc1)=NC(C)c1c(C(=O)OCC)ncn1-2 (single isomer, unassigned) [SH-053-S-CH3, 8-Ethynyl-4-methyl-6-phenyl-4H-2,5,10b-triaza-benzo[e]azulene-3-carboxylic acid ethyl ester]
- Ki [7, 11]: 206 nM
- Ki [1]: > 5 µM
- Ki [8, 12]: 1670 nM
- Ki [9, 13]: 1260 nM
- Ki [10, 14]: 1250 nM
- Ki [2]: > 5 µM

Structure (SMILES): CN1C(=O)CN=C(c2ccccc2)c2cc(Cl)ccc21 [Diazepam, reference compound]
- Ki [1]: > 1 µM
- Ki [2]: > 1 µM

Structure (SMILES): C#Cc1ccc2c(c1)C(c1cccs1)=NCc1c(C(=O)OCC)ncn1-2 [JC 221 (76), Ethyl 8-acetyleno-6-(2′-thienyl)-4H-benzo[f]imidazo[1,5-a][1,4]diazepine-3-carboxylate]
- scMet, animals protected/tested ([3]; 100 mg/kg, 0.5 hr): 0/1
- scMet, animals protected/tested ([3]; 100 mg/kg, 4.0 hr): 0/1
- MES, animals protected/tested (MES-induced seizures; 100 mg/kg, 0.5 hr): 0/3
- MES, animals protected/tested (MES-induced seizures; 100 mg/kg, 4.0 hr): 0/3
- Ki [7, 11]: 14.3 nM
- Ki [1]: 0.362 µM
- Ki ([8]; αxβ3γ2, [3H]flunitrazepam competition, read-out: Binding Affinity at GABAA/α1): 146 nM
- Ki ([9]; αxβ3γ2, [3H]flunitrazepam competition, read-out: Binding Affinity at GABAA/α2): 35 nM
- Ki [10, 14]: 182 nM
- TOX (Rotorod Test), animals toxic/tested ([6]; 100 mg/kg, 0.5 hr): 0/8
- TOX (Rotorod Test), animals toxic/tested ([6]; 100 mg/kg, 4.0 hr): 0/4

Structure (SMILES): C[Si](C)(C)C#Cc1ccc2c(c1)C(c1ccccc1F)=NCc1c(C(=O)OCC(F)(F)F)ncn1-2 [JYI-53, Trifluoroethyl-8-trimethylsilylacetylenyl-6-(2′-fluorophenyl)-4H-benzo[f]imidazo[1,5-a][1,4]diazepine-3-carboxylate]
- Ki ([7]; αxβ3γ2, [3H]flunitrazepam competition, read-out: Binding Affinity at GABAA/α5): 133 nM
- Ki ([1]; αxβ3γ2, [3H]flunitrazepam competition, read-out: Binding Affinity at GABAA/α6): 3.65 µM
- Ki [8, 12]: 77.4 nM
- Ki [9, 13]: 40.4 nM
- Ki ([10]; αxβ3γ2, [3H]flunitrazepam competition, read-out: Binding Affinity at GABAA/α3): 183 nM
